According to paper PMC7031697, “Mechanism of Activation of AMPK by Cordycepin” (Cell Chemical Biology, 2020):

Assays:
HepG2 cells [1] = assay: Cellular content of adenine and cordycepin nucleotides by LC-MS; type: cell-based, human; conditions: 1 h
Protocol: After treatment, cells for nucleotide analysis were lysed in 70% perchloric acid and the acid extracted as described previously ([Hawley et al., 2010]). The levels of AMP, ADP, ATP, CoMP, CoDP and CoTP were measured using a TSQ Quantiva (with an ion Max NG source) interfaced with an Ultimate 3000 Liquid Chromatography system (ThermoScientific). Separation of all compounds was achieved using a porous graphitic carbon column (HyperCarb 30x1 mm ID […]; Part No: C-35003-031030, Thermo-Scientific) as described previously ([Ross et al., 2017]) with some modifications. Mobile phase buffer A consisted of 0.3% (v/v) formic acid adjusted to pH 9 with ammonia prior to a 1:10 dilution. Mobile phase buffer B was 80% (v/v) acetonitrile. The column was maintained at a controlled temperature of 40°C and equilibrated with 10% buffer B for 5 min at a constant flow rate of 0.05 mL/min. Aliquots of 1μL of each sample were loaded onto the column and compounds eluted with a linear gradient from 10% buffer B to 12% buffer B within 1 min, then 12% B to 100% B within 2 min; the column was then washed for 4 min with 100% Buffer B. Eluents were sprayed into the TSQ Quantiva using Ion Max NG ion source with ion transfer tube temperature at 350°C and vaporizer temperature 30°C. The TSQ Quantiva was run in negative mode with a spray voltage of 3500, sheath gas 40, aux gas 20 and sweep gas 2. Levels of ATP, ADP and AMP were measured using multiple reactions monitoring mode (MRM) with transitions described previously ([Ross et al., 2017]). For CoMP, CoDP and CoTP, optimised collision energies and radio frequencies were determined by infusing the pure compounds. Two transitions were used to monitor each of the three compounds, CoMP (330.22>134.01, 330.22>195.11), CoDP (410>256.67, 410>392.0) and CoTP (490>158.89, 490.11>472.11).

[2] = Measurement of cordycepin in cell medium of HepG2 cells (LC-MS); type: in vitro ADME, human; conditions: human, 100 μM added
Protocol: (§1) The same LC-MS system was used to detect and quantify cordycepin. LC conditions were optimized using a TSKgel Amine-80 Column (100 × 1 mm, ID 5 μm, Part No.0020010, TOSOH Bioscience). Mobile phase buffer A consisted of 0.1% (v/v) formic acid and buffer B was in 80% (v/v) acetonitrile. The column was maintained at 40°C and was equilibrated with 98% buffer B for 5 min at a constant flow rate of 0.05 mL/min. Samples were diluted 1/1500 and aliquots of 4 μL of each sample loaded onto the column. Cordycepin was eluted by decreasing buffer B from 98% to 85% within 2 min and then to 10% within 5 min. Eluents were sprayed into the TSQ Quantiva which was run in positive mode with a spray voltage of 2700, sheath gas 40, aux gas 20, sweep gas 2. Levels of cordycepin were measured using multiple reaction monitoring mode (MRM) with optimized collision energies and radio frequencies previously determined by infusing pure compound. One transition (252 > 136) was used to detect and monitor cordycepin.

HepG2 cells [3] = assay: as above; type: in vitro ADME, human; conditions: 100 μM added
Protocol: as §1

HepG2 cells [4] = assay: Cellular oxygen consumption (Seahorse XF24); type: cell-based, human
Protocol: Cellular oxygen consumption rate (OCR) was measured using a Seahorse XF24 Extracellular Flux Analyser with 50,000 cells per well, as described previously ([Hawley et al., 2010]). HepG2 cells were cultured overnight in 24 well plates (50,000 cells/well) in standard medium as above. One hour before the experiment, the medium was replaced with 675 μl of unbuffered medium, pH 7.4: 8.3 g/L DMEM base (Sigma), 2 mM GlutaMax-1, 5 mM glucose, 32 mM NaCl, and 40 μM Phenol Red. Compounds (75 μl) were injected into wells as specified, and OCR continuously measured as described by the manufacturers of the Analyser ([Wu et al., 2007]).

[5] = molecular target: T1, AMPK complexes containing the R531G mutant (Homo sapiens, UniProt Q9UGJ0, R531G); assay: AMPK activity in anti-FLAG immunoprecipitates, HepG2 cells with FLAG-tagged AMPK-γ2 R531G mutant; type: cell-based; conditions: 1 h, 300 μM cordycepin, 10 mM phenformin or 300 μM A-769662
T1 construct: expressed in transfected cells; host or cells: HepG2 (transient, Fugene 6)
Protocol: HepG2 cells ([…]) were cultured in Minimum Essential Medium (MEM) supplemented with 10% (v/v) FBS, 1% (v/v) non-essential amino acids and 1% (v/v) penicillin/streptomycin. Transient transfection of DNAs encoding FLAG-tagged AMPK-γ2 or an R531G mutant of AMPK-γ2 were carried out 36-48 hr prior to experiments using Fugene 6 according to manufacturers’ instructions. U2OS cells ([…]) were cultured in Dulbecco’s Modified Eagle’s Medium (DMEM) supplemented with 10% (v/v) FBS and 1% (v/v) penicillin/streptomycin.
HepG2 cells were transiently transfected with DNAs encoding FLAG-tagged wild type AMPK-γ2 or the R531G mutant, using Fugene 6 according to the manufacturers’ instructions. After transfection for 48 hr, cells were treated with various agents as described, and cell lysates prepared ([Hawley et al., 2018]). FLAG-tagged AMPK was then immunoprecipitated from 150 μg total protein by incubation at 4°C for 2 hr on a roller mixer with 9 μl of EZview Red anti-FLAG M2 affinity gel. After extensive washing, the immunoprecipitates were assayed for AMPK activity (50 μg per assay in a total volume of 50 μl) using the AMARA peptide (200 μM) as substrate in the presence of 200 μM AMP, 5 mM MgCl2 and 200 μM γ-^32P-ATP as described previously ([Fyffe et al., 2018]).

AMPK = AMPK activation in HepG2 cells in medium without serum but with 0.02% BSA; type: cell-based, human; conditions: medium with 0.02% BSA vs 10% serum
Protocol: Endogenous AMPK in crude cell lysates was first immunoprecipitated using an equal mixture of anti-α1 and –α2 antibodies (150 μg protein) by incubation at 4°C for 2 hr on a roller mixer. After extensive washing, the immunoprecipitates were assayed for AMPK activity (50 μg per assay, total assay volume 50 μl) using the AMARA peptide (200 μM) as substrate in the presence of 200 μM AMP, 5 mM MgCl2 and 200 μM [γ-^32P]ATP ([Fyffe et al., 2018]).

[6] = set-up: method as in Wei et al., 2009; conditions: mice, single oral dose of 63 mg/kg; ref Wei et al., 2009; cited from earlier work

T1 sequence (Q9UGJ0 whole entry R531G, one chain of several): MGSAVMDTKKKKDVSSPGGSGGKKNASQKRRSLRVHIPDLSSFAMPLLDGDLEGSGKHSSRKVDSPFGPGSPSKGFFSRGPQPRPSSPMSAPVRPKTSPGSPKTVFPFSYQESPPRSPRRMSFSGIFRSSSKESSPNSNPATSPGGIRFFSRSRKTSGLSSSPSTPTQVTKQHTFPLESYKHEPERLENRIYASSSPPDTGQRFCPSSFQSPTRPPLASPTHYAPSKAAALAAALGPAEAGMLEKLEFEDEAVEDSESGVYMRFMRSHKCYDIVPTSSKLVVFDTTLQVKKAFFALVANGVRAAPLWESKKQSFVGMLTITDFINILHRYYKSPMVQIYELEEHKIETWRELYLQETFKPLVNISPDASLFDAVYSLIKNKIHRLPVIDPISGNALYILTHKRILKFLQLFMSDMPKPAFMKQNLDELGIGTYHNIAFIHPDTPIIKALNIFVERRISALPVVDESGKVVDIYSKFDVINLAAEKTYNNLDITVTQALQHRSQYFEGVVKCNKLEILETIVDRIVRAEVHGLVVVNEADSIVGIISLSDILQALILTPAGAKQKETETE

SMILES: Nc1ncnc2c1ncn2[C@@H]1O[C@H](CO)C[C@H]1O [cordycepin, 3′-deoxyadenosine]
- AMPK activation and CoMP formation (HepG2 cells [1]; 30 μM cordycepin or below): neither AMPK activation nor CoMP formation was observed
- decrease in cellular ADP content (HepG2 cells [1]; 1 mM cordycepin): 14 fold
- decrease in cellular AMP content (HepG2 cells [1]; 1 mM cordycepin): 5 fold
- drop in cellular ATP content (HepG2 cells [1]; 1 mM cordycepin): 100 fold
- half-life at 100 μM [2]: ~1.33 h
- decline of cordycepin in the medium (HepG2 cells [3]; by 2 h): 70%
- cordycepin remaining in the medium (HepG2 cells [3]; by 4 h): almost disappeared
- effect on basal oxygen uptake (HepG2 cells [4]; 30 μM to 1 mM): only minor effects
- inhibition of basal oxygen uptake (HepG2 cells [4]; 300 μM after 45 min and 1 mM after 30 and 45 min): modest inhibition
- effect on maximal oxygen uptake (HepG2 cells [4]; after addition of the uncoupler 2,4-dinitrophenol): no significant effects
- effect on residual oxygen uptake (HepG2 cells [4]; after subsequent addition of rotenone and antimycin A): no significant effects
- activation of AMPK complexes containing the R531G mutant [5]: not activated
- potency of AMPK activation compared with medium containing serum (AMPK): much more potent
- peak plasma concentration [6]: 10 µM
- plasma half-life [6]: 2.1 h
- time to peak plasma concentration [6]: 1.5 h
